From PubChem BioAssay AID256 (DTP/NCI, 2004)
Where “and” joins values, the source holds several entries; their conditions need not be identical. Identical values can stand only once. Inconclusive results and toxic doses are left out. How the source made its calls: active means survival T/C of 150% or more; inactive means T/C below 125% in these data.

System: CD2F1 mice, L1210 leukemia ip, survival T/C
Assay: NCI In Vivo Anticancer Drug Screen. Data for tumor model L1210 Leukemia (intraperitoneal) in CD2F1 (CDF1) mice
Settings: higher = longer survival
In short: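 Activity against a transplanted murine tumor was judged by comparing the compound group with a vehicle group. The outcome in the treated animals was divided by that in the controls.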

[1] = endpoint: mean survival time, dose: 100.0 mg/kg/injection, schedule: Q04DX003 (ip), vehicle: saline with Tween-80
[2] = endpoint: mean survival time, dose: 200.0 mg/kg/injection, schedule: Q04DX003 (ip), vehicle: saline with Tween-80
[3] = endpoint: mean survival time, dose: 400.0 mg/kg/injection, schedule: Q04DX003 (ip), vehicle: saline with Tween-80
[4] = endpoint: mean survival time, dose: 100.0 mg/kg/injection, schedule: Q01DX001 (ip), vehicle: saline with Tween-80
[5] = endpoint: mean survival time, dose: 200.0 mg/kg/injection, schedule: Q01DX001 (ip), vehicle: saline with Tween-80
[6] = endpoint: mean survival time, dose: 400.0 mg/kg/injection, schedule: Q01DX001 (ip), vehicle: saline with Tween-80
[7] = endpoint: mean survival time, dose: 100.0 mg/kg/injection, schedule: Q01DX009 (ip), vehicle: saline with Tween-80
[8] = endpoint: mean survival time, dose: 200.0 mg/kg/injection, schedule: Q01DX009 (ip), vehicle: saline with Tween-80
[9] = endpoint: mean survival time, dose: 100.0 mg/kg/injection, schedule: Q04DX003 (ip), vehicle: saline
[10] = endpoint: mean survival time, dose: 200.0 mg/kg/injection, schedule: Q04DX003 (ip), vehicle: saline
[11] = endpoint: mean survival time, dose: 400.0 mg/kg/injection, schedule: Q04DX003 (ip), vehicle: saline
[12] = endpoint: mean survival time, dose: 100.0 mg/kg/injection, schedule: Q01DX001 (ip), vehicle: saline
[13] = endpoint: mean survival time, dose: 200.0 mg/kg/injection, schedule: Q01DX001 (ip), vehicle: saline
[14] = endpoint: mean survival time, dose: 400.0 mg/kg/injection, schedule: Q01DX001 (ip), vehicle: saline

Measured: T/C

O=C(O)c1cn(C2OC(CO)C(O)C2O)c2nc[nH]c(=O)c12 (centres undefined)
inactive: endpoint: median survival time, dose: 8.63 mg/kg/injection, schedule: Q01DX005 (ip), vehicle: saline with Tween-80 103 % of control | endpoint: median survival time, dose: 17.25 mg/kg/injection, schedule: Q01DX005 (ip), vehicle: saline with Tween-80 101 % of control | endpoint: median survival time, dose: 34.5 mg/kg/injection, schedule: Q01DX005 (ip), vehicle: saline with Tween-80 108 % of control | endpoint: median survival time, dose: 69.0 mg/kg/injection, schedule: Q01DX005 (ip), vehicle: saline with Tween-80 104 % of control | endpoint: median survival time, dose: 138.0 mg/kg/injection, schedule: Q01DX005 (ip), vehicle: saline with Tween-80 110 % of control

CNP1(=O)OC(c2ccccc2)=CCN1CCCl (centres undefined)
inactive: endpoint: median survival time, dose: 31.25 mg/kg/injection, schedule: Q01DX001 (ip), vehicle: distilled water + Tween-80 102 % of control | endpoint: median survival time, dose: 62.5 mg/kg/injection, schedule: Q01DX001 (ip), vehicle: distilled water + Tween-80 106 % of control | endpoint: median survival time, dose: 125.0 mg/kg/injection, schedule: Q01DX001 (ip), vehicle: distilled water + Tween-80 96 % of control | endpoint: median survival time, dose: 250.0 mg/kg/injection, schedule: Q01DX001 (ip), vehicle: distilled water + Tween-80 96 % of control

OC1CCCCC12CC2 (centres undefined)
inactive: [1] 102 % of control | [2] 104 % of control | [3] 113 % of control

N/C(=N\O)c1ncnc2c1ncn2C1OC(CO)C(O)C1O (centres undefined)
inactive: endpoint: median survival time, dose: 6.25 mg/kg/injection, schedule: Q01DX005 (ip), vehicle: distilled water + Tween-80 107 % of control | endpoint: median survival time, dose: 12.5 mg/kg/injection, schedule: Q01DX005 (ip), vehicle: distilled water + Tween-80 115 % of control | endpoint: median survival time, dose: 25.0 mg/kg/injection, schedule: Q01DX005 (ip), vehicle: distilled water + Tween-80 108 % of control | endpoint: median survival time, dose: 50.0 mg/kg/injection, schedule: Q01DX005 (ip), vehicle: distilled water + Tween-80 111 % of control | endpoint: median survival time, dose: 100.0 mg/kg/injection, schedule: Q01DX005 (ip), vehicle: distilled water + Tween-80 111 % of control

CCC(=O)OCCNc1cc(C(N)=O)c([N+](=O)[O-])cc1[N+](=O)[O-]
inactive: [4] 105 % of control | [5] 92 % of control | [6] 97 % of control

O=C(Nc1ccc(NC(=O)c2ccccc2)c2ccccc12)c1ccccc1
inactive: [1] 92 % of control | [3] 92 % of control

CCOC(=O)C(=O)NCCc1ccc2c(c1)OCO2
inactive: [4] 97 % of control | [5] 95 % of control | [6] 100 % of control

C[CH2][Sn]([Cl])([Cl])[Cl].Oc1ccccc1C=NCCN=Cc1ccccc1O
inactive: endpoint: mean survival time, dose: 50.0 mg/kg/injection, schedule: Q01DX009 (ip), vehicle: saline with Tween-80 100 % of control | [7] 95 % of control | [1] 98 % of control | [8] 97 % of control | [2] 89 % of control

O=C1c2cccc3cccc(c23)C(=O)N1Cc1ccccc1
inactive: [1] 98 % of control | [2] 87 % of control | [3] 91 % of control

O=c1ccc2cc(Cl)cc([N+](=O)[O-])c2o1
inactive: endpoint: mean survival time, dose: 100.0 mg/kg/injection, schedule: Q01DX001 (ip), vehicle: Klucel (hydroxypropylcellulose) (HPC) 102 % of control | endpoint: mean survival time, dose: 200.0 mg/kg/injection, schedule: Q01DX001 (ip), vehicle: Klucel (hydroxypropylcellulose) (HPC) 99 % of control | endpoint: mean survival time, dose: 400.0 mg/kg/injection, schedule: Q01DX001 (ip), vehicle: Klucel (hydroxypropylcellulose) (HPC) 99 % of control

[Cl][Pt][Cl].[NH-]NC(=O)c1ccncc1
inactive: endpoint: mean survival time, dose: 12.5 mg/kg/injection, schedule: Q04DX003 (ip), vehicle: saline with Tween-80 95 % of control | endpoint: mean survival time, dose: 25.0 mg/kg/injection, schedule: Q04DX003 (ip), vehicle: saline with Tween-80 94 % of control | endpoint: mean survival time, dose: 50.0 mg/kg/injection, schedule: Q04DX003 (ip), vehicle: saline with Tween-80 91 % of control | [1] 94 % of control | [2] 88 % of control

CCOC(=O)c1c(-c2ccccc2)csc1NS(=O)(=O)c1ccc(C)cc1
inactive: endpoint: mean survival time, dose: 75.0 mg/kg/injection, schedule: Q01DX001 (ip), vehicle: saline 96 % of control | endpoint: mean survival time, dose: 150.0 mg/kg/injection, schedule: Q01DX001 (ip), vehicle: saline 90 % of control | endpoint: mean survival time, dose: 300.0 mg/kg/injection, schedule: Q01DX001 (ip), vehicle: saline 101 % of control

COC(=O)c1cn(C2OC(CO)C(O)C2O)c2ncnc(N)c12 (centres undefined)
inactive: endpoint: mean survival time, dose: 3.12 mg/kg/injection, schedule: Q01DX009 (ip), vehicle: water 104 % of control | endpoint: mean survival time, dose: 6.25 mg/kg/injection, schedule: Q01DX009 (ip), vehicle: water 112 % of control | endpoint: mean survival time, dose: 12.5 mg/kg/injection, schedule: Q01DX009 (ip), vehicle: water 122 % of control

O/N=C(\c1ccccc1)C1C(/C(=N/O)c2ccccc2)C1c1ccccc1 (centres undefined) (tested in a mixture with another compound)
inactive: [7] 95 % of control | [8] 95 % of control | endpoint: mean survival time, dose: 400.0 mg/kg/injection, schedule: Q01DX009 (ip), vehicle: saline with Tween-80 90 % of control

CCOc1ccc(Nc2c3ccccc3nc3ccccc23)cc1
inactive: [8] 88 % of control

CC(C#N)(Nc1ccccc1)c1ccccc1 (centres undefined)
inactive: [9] 102 % of control | [10] 103 % of control | [11] 96 % of control

O=C(O)CCc1ccccc1CC(=O)O
inactive: [1] 98 % of control | [2] 98 % of control | [3] 97 % of control

O=C1CCC(=O)N1C1c2ccccc2Oc2ccccc21
inactive: endpoint: mean survival time, dose: 100.0 mg/kg/injection, schedule: Q01DX009 (ip), vehicle: saline 96 % of control | endpoint: mean survival time, dose: 200.0 mg/kg/injection, schedule: Q01DX009 (ip), vehicle: saline 91 % of control | endpoint: mean survival time, dose: 400.0 mg/kg/injection, schedule: Q01DX009 (ip), vehicle: saline 92 % of control

OCC1OC(n2cc(I)c3c2ncn2nnnc32)C(O)C1O (centres undefined)
inactive: endpoint: mean survival time, dose: 1.56 mg/kg/injection, schedule: Q01DX005 (ip), vehicle: water 88 % of control | endpoint: mean survival time, dose: 3.13 mg/kg/injection, schedule: Q01DX005 (ip), vehicle: water 95 % of control | endpoint: mean survival time, dose: 6.25 mg/kg/injection, schedule: Q01DX005 (ip), vehicle: water 95 % of control | endpoint: mean survival time, dose: 12.5 mg/kg/injection, schedule: Q01DX005 (ip), vehicle: water 98 % of control | endpoint: mean survival time, dose: 25.0 mg/kg/injection, schedule: Q01DX005 (ip), vehicle: water 87 % of control and 97 % of control | endpoint: mean survival time, dose: 50.0 mg/kg/injection, schedule: Q01DX005 (ip), vehicle: water 97 % of control

Cc1cccc(CC(C)O)n1 (centres undefined)
inactive: [12] 96 % of control | endpoint: mean survival time, dose: 100.0 mg/kg/injection, schedule: Q04DX002 (ip), vehicle: saline with Tween-80 97 % of control | endpoint: mean survival time, dose: 100.0 mg/kg/injection, schedule: Q04DX002 (ip), vehicle: saline 93 % of control | [1] 96 % of control and 97 % of control | [13] 94 % of control | endpoint: mean survival time, dose: 200.0 mg/kg/injection, schedule: Q04DX002 (ip), vehicle: saline with Tween-80 106 % of control | endpoint: mean survival time, dose: 200.0 mg/kg/injection, schedule: Q04DX002 (ip), vehicle: saline 96 % of control | [2] 86 % of control and 112 % of control | [14] 98 % of control | endpoint: mean survival time, dose: 400.0 mg/kg/injection, schedule: Q04DX002 (ip), vehicle: saline with Tween-80 93 % of control | endpoint: mean survival time, dose: 400.0 mg/kg/injection, schedule: Q04DX002 (ip), vehicle: saline 93 % of control | [3] 97 % of control and 106 % of control

O=C(O)C1C2CC3C(OC(=O)C31)C2Br (centres undefined)
inactive: [9] 105 % of control | [10] 96 % of control | [11] 102 % of control

CCOC(=O)CCC(NC(=O)c1ccc(NCC2CCc3nc(N)[nH]c(=O)c3N2)cc1)C(=O)OCC (centres undefined)
inactive: endpoint: median survival time, dose: 10.0 mg/kg/injection, schedule: Q01DX005 (ip), vehicle: distilled water + Tween-80 97 % of control | endpoint: median survival time, dose: 20.0 mg/kg/injection, schedule: Q01DX005 (ip), vehicle: distilled water + Tween-80 102 % of control | endpoint: median survival time, dose: 40.0 mg/kg/injection, schedule: Q01DX005 (ip), vehicle: distilled water + Tween-80 100 % of control | endpoint: median survival time, dose: 80.0 mg/kg/injection, schedule: Q01DX005 (ip), vehicle: distilled water + Tween-80 96 % of control | endpoint: median survival time, dose: 160.0 mg/kg/injection, schedule: Q01DX005 (ip), vehicle: distilled water + Tween-80 100 % of control

Cc1ccc(S(=O)(=O)NC(=O)NCCC(C)C)cc1
inactive: endpoint: mean survival time, dose: 100.0 mg/kg/injection, schedule: Q01DX009 (ip), vehicle: saline sonified 104 % of control | endpoint: mean survival time, dose: 200.0 mg/kg/injection, schedule: Q01DX009 (ip), vehicle: saline sonified 97 % of control | endpoint: mean survival time, dose: 400.0 mg/kg/injection, schedule: Q01DX009 (ip), vehicle: saline sonified 98 % of control

O=CC(O)C(O)C(O)CO (centres undefined)
inactive: [12] 96 % of control | [13] 93 % of control | [14] 98 % of control

CC1NC(=O)OC12CCCCC2 (centres undefined)
inactive: [7] 101 % of control | [8] 107 % of control
